Measured values published in patent US10131652B2, “Pyrimidinyloxy benzene derivatives as herbicides” (E. I. DU PONT DE NEMOURS AND COMPANY, priority 2014, dated 2018).
Where two headings read alike, the source gives them in different places.

Tests used:
Format in all cases: in vivo
corn (Zea mays) = experiment: Test D pre-/postemergence plant response; details: Zea mays
Outline: (§1)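 Sown seed (loam/sand soil) treated preemergence; emerged plants, 1- to 4-leaf stage and 2 to 18 cm, treated postemergence in peat/vermiculite medium. Greenhouse incubation 13–15 d. Endpoint: visual 0–100 rating versus untreated.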

[1] = tested on: yellow nutsedge (Cyperus esculentus); experiment: Test D pre-/postemergence plant response; details: Cyperus; for pest or weed control at 31 g/ha: 31 g ai/ha; for pest or weed control at 62 g/ha: 62 g ai/ha; for pest or weed control at 125 g/ha: 125 g ai/ha
Outline: as §1

[2] = tested on: giant foxtail (Setaria faberii); experiment: Test D pre-/postemergence plant response; details: Setaria faberi; for pest or weed control at 16 g/ha: 16 g ai/ha; for pest or weed control at 31 g/ha: 31 g ai/ha; for pest or weed control at 62 g/ha: 62 g ai/ha; for pest or weed control at 125 g/ha: 125 g ai/ha
Outline: as §1

[3] = tested on: barnyardgrass (Echinochloa crus-galli); experiment: Test D pre-/postemergence plant response; details: Echinochloa crus-galli; for pest or weed control at 16 g/ha: 16 g ai/ha; for pest or weed control at 31 g/ha: 31 g ai/ha; for pest or weed control at 62 g/ha: 62 g ai/ha; for pest or weed control at 125 g/ha: 125 g ai/ha
Outline: as §1

[4] = tested on: Italian ryegrass (Lolium multiflorum); experiment: Test D pre-/postemergence plant response; details: Lolium multiflorum; for pest or weed control at 31 g/ha: 31 g ai/ha; for pest or weed control at 62 g/ha: 62 g ai/ha; for pest or weed control at 125 g/ha: 125 g ai/ha
Outline: as §1

[5] = tested on: galium (catchweed bedstraw, Galium aparine); experiment: Test B postemergence plant response
Outline: (§2)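 Seedlings in a loam soil and sand mix received a postemergence application of the formulated chemicals at the one- to two-leaf stage (2–10 cm tall). They were kept in a greenhouse for roughly 10 days, then scored for injury relative to untreated plants, 0 meaning no effect and 100 complete control.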

[6] = tested on: blackgrass (Alopecurus myosuroides); experiment: Test B postemergence plant response
Outline: as §2

[7] = tested on: chickweed (common chickweed, Stellaria media); experiment: Test D postemergence plant response; details: Stellaria media, post-emergence
Outline: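 Postemergence spray on plants 2–18 cm tall (1- to 4-leaf stage), grown in pots of peat/vermiculite medium. Plants were kept in a greenhouse for 13–15 days, then visually rated against untreated controls on a 0 (no effect) to 100 (complete control) scale.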

[8] = post-emergence, Postemergence, scale 0 to 100, 0 no effect, 100 complete control, read-out: Plant response rating, Nutsedge, Yellow
[9] = pre-emergence, Preemergence, scale 0 to 100 (0 no effect, 100 complete control), read-out: Plant response rating, Nutsedge, Yellow
[10] = post-emergence, Postemergence, scale 0 to 100 (0 no effect, 100 complete control), read-out: Foxtail, Giant plant response rating
[11] = post-emergence, Postemergence, scale 0 to 100, 0 no effect, 100 complete control, read-out: Plant response rating, Foxtail, Giant
[12] = pre-emergence, Preemergence, scale 0 to 100 (0 no effect, 100 complete control), read-out: Plant response rating, Foxtail, Giant
[13] = post-emergence, Postemergence, scale 0 to 100 (0 no effect, 100 complete control), read-out: Barnyardgrass plant response rating
[14] = post-emergence, Postemergence, scale 0 to 100, 0 no effect, 100 complete control, read-out: Plant response rating, Barnyardgrass
[15] = pre-emergence, Preemergence, scale 0 to 100 (0 no effect, 100 complete control), read-out: Plant response rating, Barnyardgrass
[16] = post-emergence, Postemergence, scale 0 to 100, 0 no effect, 100 complete control, read-out: Plant response rating, Ryegrass, Italian
[17] = pre-emergence, Preemergence, scale 0 to 100 (0 no effect, 100 complete control), read-out: Plant response rating, Ryegrass, Italian
[18] = 125 g ai/ha, postemergence, 0 to 100 scale, 0 no effect, 100 complete control
[19] = Postemergence, 31 g ai/ha, 0 to 100 scale (0 no effect, 100 complete control)

SMILES: Fc1cccc(Oc2ncc(Cl)cn2)c1-c1cc(C(F)F)no1 [Compound 144, 5-chloro-2-[2-[3-(difluoromethyl)-5-isoxazolyl]-3-fluorophenoxy]pyrimidine]
- Corn plant response rating (crop injury, 0 = no effect, 100 = complete kill) at 125 g/ha (corn (Zea mays); post-emergence, Postemergence, 125 g ai/ha, scale 0 to 100, 0 no effect, 100 complete control): 5%
- plant injury at 125 g/ha (corn (Zea mays); pre-emergence, Preemergence, 125 g ai/ha, read-out: Plant response rating (scale 0 to 100), Corn): 65%
- Corn plant response rating (crop injury, 0 = no effect, 100 = complete kill) at 16 g/ha (corn (Zea mays); pre-emergence, Preemergence, 16 g ai/ha, scale 0 to 100 (0 no effect, 100 complete control)): 0%
- Corn plant response rating (crop injury, 0 = no effect, 100 = complete kill) at 31 g/ha (corn (Zea mays); pre-emergence, Preemergence, 31 g ai/ha, scale 0 to 100 (0 no effect, 100 complete control)): 5%
- Corn plant response rating (crop injury, 0 = no effect, 100 = complete kill) at 62 g/ha (corn (Zea mays); pre-emergence, Preemergence, 62 g ai/ha, scale 0 to 100 (0 no effect, 100 complete control)): 15%
- pest or weed control at 31 g/ha ([1]; post-emergence, Postemergence, scale 0 to 100 (0 no effect, 100 complete control), read-out: Nutsedge, Yellow plant response rating): 5%
- pest or weed control at 62 g/ha [1, 8]: 5%
- pest or weed control at 125 g/ha [1, 8]: 5%
- pest or weed control at 125 g/ha ([1]; pre-emergence, Preemergence, read-out: Plant response rating (scale 0 to 100), Nutsedge, Yellow): 85%
- pest or weed control at 16 g/ha ([1]; pre-emergence, Preemergence, 16 g ai/ha, scale 0 to 100 (0 no effect, 100 complete control), read-out: Plant response rating, Nutsedge, Yellow): 15%
- pest or weed control at 31 g/ha [1, 9]: 30%
- pest or weed control at 62 g/ha [1, 9]: 50%
- pest or weed control at 16 g/ha [2, 10]: 5%
- pest or weed control at 31 g/ha [2, 10]: 10%
- pest or weed control at 62 g/ha [2, 11]: 25%
- pest or weed control at 125 g/ha [2, 11]: 25%
- pest or weed control at 125 g/ha ([2]; pre-emergence, Preemergence, read-out: Plant response rating (scale 0 to 100), Foxtail, Giant): 100%
- pest or weed control at 16 g/ha [2, 12]: 100%
- pest or weed control at 31 g/ha [2, 12]: 100%
- pest or weed control at 62 g/ha [2, 12]: 100%
- pest or weed control at 16 g/ha [3, 13]: 5%
- pest or weed control at 31 g/ha [3, 13]: 5%
- pest or weed control at 62 g/ha [3, 14]: 10%
- pest or weed control at 125 g/ha [3, 14]: 15%
- pest or weed control at 125 g/ha ([3]; pre-emergence, Preemergence, read-out: Plant response rating (scale 0 to 100), Barnyardgrass): 100%
- pest or weed control at 16 g/ha [3, 15]: 70%
- pest or weed control at 31 g/ha [3, 15]: 80%
- pest or weed control at 62 g/ha [3, 15]: 100%
- pest or weed control at 31 g/ha ([4]; post-emergence, Postemergence, scale 0 to 100 (0 no effect, 100 complete control), read-out: Ryegrass, Italian plant response rating): 5%
- pest or weed control at 62 g/ha [4, 16]: 10%
- pest or weed control at 125 g/ha [4, 16]: 10%
- pest or weed control at 125 g/ha ([4]; pre-emergence, Preemergence, read-out: Plant response rating (scale 0 to 100), Ryegrass, Italian): 98%
- pest or weed control at 16 g/ha ([4]; pre-emergence, Preemergence, 16 g ai/ha, scale 0 to 100 (0 no effect, 100 complete control), read-out: Plant response rating, Ryegrass, Italian): 5%
- pest or weed control at 31 g/ha [4, 17]: 60%
- pest or weed control at 62 g/ha [4, 17]: 80%
- Plant response rating, Galium [5, 18]: 100
- Plant response rating, Galium [5, 19]: 100
- Plant response rating, Blackgrass [6, 18]: 90
- Plant response rating, Blackgrass [6, 19]: 80
- pest or weed control at 16 g/ha ([7]; 16 g ai/ha, scale 0 to 100 (0 no effect, 100 complete control), read-out: Chickweed plant response rating): 70%
- pest or weed control at 31 g/ha ([7]; 31 g ai/ha, scale 0 to 100 (0 no effect, 100 complete control), read-out: Chickweed plant response rating): 80%
- pest or weed control at 62 g/ha ([7]; 62 g ai/ha, scale 0 to 100, 0 no effect, 100 complete control, read-out: Plant response rating, Chickweed): 95%
- pest or weed control at 125 g/ha ([7]; 125 g ai/ha, scale 0 to 100, 0 no effect, 100 complete control, read-out: Plant response rating, Chickweed): 95%
